Measurements: the NIST ThermoML archive (doi:10.1016/j.jct.2014.03.021)

Assay: xn = mol fraction of the nth substance listed
Conditions: 101 kPa, Liquid; for electrical conductivity: Alternating current cell with electrodes; for speed of sound: Frequency=3 MHz, Sing-around technique in a fixed-path interferometer; for mass density: Vibrating tube method

C[C@H](O)C(=O)[O-].C[N+](C)(C)CCO + O
Conditions | electrical conductivity [S/m] | mass density [kg/m3] | speed of sound [m/s]
293.15 K, x1 = 0.0258 | 3 | 1036.96 | 1660.5
293.15 K, x1 = 0.0511 | 2.99 | 1063.09 | 1783.4
293.15 K, x1 = 0.074 | 2.55 | 1083.32 | 1872.8
293.15 K, x1 = 0.1027 | 1.91 | 1098.55 | 1930.6
293.15 K, x1 = 0.1443 | – | 1111.86 | 1988.4
293.15 K, x1 = 0.1965 | 0.806 | 1122.77 | 1987.8
293.15 K, x1 = 0.2705 | – | 1132.07 | 1989.4
293.15 K, x1 = 0.2957 | 0.344 | 1133.96 | 1985.2
293.15 K, x1 = 0.3897 | – | 1138.61 | 1975.3
293.15 K, x1 = 0.5347 | 0.079 | 1140.95 | 1955.9
293.15 K, x1 = 0.6044 | 0.059 | 1141.68 | 1952.1
293.15 K, x1 = 0.6931 | 0.037 | 1141.39 | 1942.5
293.15 K, x1 = 0.7565 | – | 1141.84 | 1943.3
293.15 K, x1 = 0.798 | 0.018 | – | –
293.15 K, x1 = 0.8375 | – | 1142.39 | 1942.6
293.15 K, x1 = 0.8996 | 0.01 | 1142.96 | 1938.8
293.15 K, x1 = 0.94 | – | 1143.25 | 1945.2
293.15 K, x1 = 0.9611 | – | 1143.37 | 1944.8
298.15 K, x1 = 0.0258 | 3.35 | 1035.09 | 1665.3
298.15 K, x1 = 0.0511 | 3.42 | 1060.72 | 1781.5
298.15 K, x1 = 0.074 | 2.85 | 1080.6 | 1866
298.15 K, x1 = 0.1027 | 2.29 | 1095.58 | 1920.6
298.15 K, x1 = 0.1443 | – | 1108.71 | 1968.2
298.15 K, x1 = 0.1965 | 1.01 | 1119.53 | 1974.6
298.15 K, x1 = 0.2705 | – | 1128.8 | 1970.9
298.15 K, x1 = 0.2957 | 0.405 | 1130.7 | 1971.5
298.15 K, x1 = 0.3897 | – | 1135.35 | 1957.2
298.15 K, x1 = 0.5347 | 0.108 | 1137.68 | 1941.6
298.15 K, x1 = 0.6044 | 0.089 | 1138.43 | 1937.4
298.15 K, x1 = 0.6931 | 0.046 | 1138.13 | 1927.3
298.15 K, x1 = 0.7565 | – | 1138.58 | 1923.3
298.15 K, x1 = 0.798 | 0.029 | – | –
298.15 K, x1 = 0.8375 | – | 1139.15 | 1922.5
298.15 K, x1 = 0.8996 | 0.017 | 1139.75 | 1922.9
298.15 K, x1 = 0.94 | – | 1140.05 | 1921.7
298.15 K, x1 = 0.9611 | – | 1140.19 | 1919.6
303.15 K, x1 = 0.0258 | 3.68 | 1033.07 | 1669
303.15 K, x1 = 0.0511 | 3.86 | 1058.28 | 1779.1
303.15 K, x1 = 0.074 | 3.23 | 1077.82 | 1858.9
303.15 K, x1 = 0.1027 | 2.57 | 1092.58 | 1910.5
303.15 K, x1 = 0.1443 | – | 1105.56 | 1954.1
303.15 K, x1 = 0.1965 | 1.19 | 1116.28 | 1961.5
303.15 K, x1 = 0.2705 | – | 1125.54 | 1958
303.15 K, x1 = 0.2957 | 0.497 | 1127.45 | 1957.9
303.15 K, x1 = 0.3897 | – | 1132.15 | 1944.6
303.15 K, x1 = 0.5347 | 0.145 | 1134.46 | 1927.8
303.15 K, x1 = 0.6044 | 0.106 | 1135.19 | 1923.5
303.15 K, x1 = 0.6931 | 0.059 | 1134.84 | 1912.9
303.15 K, x1 = 0.7565 | – | 1135.3 | 1909.5
303.15 K, x1 = 0.798 | 0.047 | – | –
303.15 K, x1 = 0.8375 | – | 1135.92 | 1908.6
303.15 K, x1 = 0.8996 | 0.042 | 1136.57 | 1908.1
303.15 K, x1 = 0.94 | – | 1136.9 | 1905.4
303.15 K, x1 = 0.9611 | – | 1137.04 | 1902.3
308.15 K, x1 = 0.0258 | 4 | – | 1671.7
308.15 K, x1 = 0.0511 | 4.22 | – | 1776
308.15 K, x1 = 0.074 | 3.67 | – | 1851.6
308.15 K, x1 = 0.1027 | 2.95 | – | 1900.3
308.15 K, x1 = 0.1443 | – | – | 1940.6
308.15 K, x1 = 0.1965 | 1.44 | – | 1948.6
308.15 K, x1 = 0.2705 | – | – | 1945.2
308.15 K, x1 = 0.2957 | 0.622 | – | 1944.6
308.15 K, x1 = 0.3897 | – | – | 1932
308.15 K, x1 = 0.5347 | 0.194 | – | 1914.3
308.15 K, x1 = 0.6044 | 0.138 | – | 1909.9
308.15 K, x1 = 0.6931 | 0.073 | – | –
308.15 K, x1 = 0.798 | 0.053 | – | –
308.15 K, x1 = 0.8996 | 0.056 | – | –
